According to patent US12428415B2, “Matriptase 2 inhibitors and uses thereof” (Disc Medicine, Inc., priority 2018, dated 2025):
Read-outs that look alike come from different tables or passages of the source.

Biological target: T1, Human Recombinant Matriptase 2 (Homo sapiens, UniProt Q8IU80)
T1 construct: purchased Enzo Life Sciences (an in-house preparation was also used) ALX-201-752-1
T1 sequence (Q8IU80 1-811): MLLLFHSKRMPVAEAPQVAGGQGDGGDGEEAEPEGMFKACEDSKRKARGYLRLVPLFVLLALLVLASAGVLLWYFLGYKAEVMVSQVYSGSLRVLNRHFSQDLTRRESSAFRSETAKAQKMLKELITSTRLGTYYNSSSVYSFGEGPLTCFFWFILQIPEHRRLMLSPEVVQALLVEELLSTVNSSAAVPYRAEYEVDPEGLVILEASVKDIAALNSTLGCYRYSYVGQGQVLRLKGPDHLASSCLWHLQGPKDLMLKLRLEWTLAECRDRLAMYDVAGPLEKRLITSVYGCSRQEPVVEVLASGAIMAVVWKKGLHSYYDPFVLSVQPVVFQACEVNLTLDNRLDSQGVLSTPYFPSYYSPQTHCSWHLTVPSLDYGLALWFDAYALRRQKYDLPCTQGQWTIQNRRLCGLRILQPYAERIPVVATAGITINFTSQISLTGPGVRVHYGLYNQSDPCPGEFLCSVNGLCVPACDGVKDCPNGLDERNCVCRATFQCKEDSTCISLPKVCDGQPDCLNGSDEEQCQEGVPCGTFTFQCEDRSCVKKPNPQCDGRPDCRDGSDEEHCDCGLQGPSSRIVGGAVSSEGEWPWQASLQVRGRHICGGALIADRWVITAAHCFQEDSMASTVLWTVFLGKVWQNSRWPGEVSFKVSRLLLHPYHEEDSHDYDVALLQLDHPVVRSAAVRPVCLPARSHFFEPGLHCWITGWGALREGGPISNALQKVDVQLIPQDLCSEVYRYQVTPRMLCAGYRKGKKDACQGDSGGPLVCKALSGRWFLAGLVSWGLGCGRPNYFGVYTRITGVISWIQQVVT
Assay: Matriptase 2 fluorescence based inhibition assay, Method B (50 mM TRIS pH 7.5, 150 mM NaCl, 0.01% gelatin)
Assay type: biochemical
Details: for inhibition at 1 µM: read-out: Mar-2 % inhibition at 1 uM
Summary of the method: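 Commercial (7 nM) or in-house (15 nM) enzyme preincubated 30 min with compound at 25° C, then 100 μM Boc-Gln-Ala-Arg-AMC added; fluorescence (Ex 360/Em 480 nm) read at 60 min. 1% DMSO final. IC50 from variable-slope sigmoidal fit of % inhibition.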

[1] = 1 uM compound, Assay Used = B (Method B)
[2] = compound at 1 uM, Assay Used: B

Structure (SMILES)	inhibition at 1 µM (1 uM compound, Assay Used = B)	inhibition at 1 µM [1]	also measured
N=C(N)c1ccc2cc(C(=O)O)n(Cc3cc(OCc4ncccn4)cc4ccccc34)c2c1 [Compound I-563]	50 to 75%	–	–
NCc1ccc2cc(C(=O)N[C@H]3CC[C@@H](N)CC3)n(Cc3cccc4ccccc34)c2c1 [Compound I-743]	–	50 to 75%	–
N=C(NN)c1ccc2cc(C(=O)N[C@H]3CC[C@H](N)CC3)n(Cc3cccc4ccccc34)c2c1 [Compound I-827, N-((1r,4r)-4-aminocyclohexyl)-6-(hydrazineyl(imino)methyl)-1-(naphthalen-1-ylmethyl)-1H-indole-2-carboxamide]	–	–	inhibition at 1 µM [2]: 25 to 50%
CC(C)(C)Sc1cccc2c(Cn3c(C(=O)N[C@H]4CC[C@H](N)CC4)cc4ccc(C(=N)N)cc43)cccc12 [Compound I-739]	–	75 to 100%	–
N=C(N)c1ccc2cc(C(=O)N3CC[C@@H](N)C3)n(Cc3cccc4ccccc34)c2c1 [Compound I-446]	50 to 75%	–	–
CC(C)(C)OC(=O)NC(=N)c1ccc2cc(C(=O)NCC3CCN(C(=O)OC(C)(C)C)CC3)n(Cc3cccc4ccccc34)c2c1 [Compound I-492, tert-butyl4-((6-(N-(tert-butoxycarbonyl)carbamimidoyl)-1-(naphthalen-1-ylmethyl)-1H-indole-2-carboxamido)methyl)piperidine-1-carboxylate]	25 to 50%	–	–
N=C(N)c1ccc2cc(C(=O)O[C@H]3CC[C@@H](N)CC3)n(Cc3cccc4ccccc34)c2c1 [Compound I-744]	–	75 to 100%	–
N=C(N)c1cnc2cc(C(=O)O)n(Cc3cccc4ccccc34)c2c1 [Compound I-713]	–	0 to 25%	–
N=C(N)c1ccc2cc(C(=O)O)n(Cc3cc(Oc4ccccc4)cc4ccccc34)c2n1 [Compound I-732]	–	25 to 50%	–
CO/N=C(/N)c1ccc2cc(C(=O)O)n(Cc3cccc4ccccc34)c2c1 [Compound I-699, (E)-6-(N′-methoxycarbamimidoyl)-1-(naphthalen-1-ylmethyl)-1H-indole-2-carboxylic Acid]	–	0 to 25%	–
CN1CCN(C(=O)c2cc3ccc(C(=N)NC(=O)OC(C)(C)C)cc3n2Cc2cccc3ccccc23)CC1 [Compound I-425]	0 to 25%	–	–
Cc1ccc(S(=O)(=O)Oc2cc(Cn3c(C(=O)O)cc4ccc(C(=N)N)cc43)c3ccccc3c2)cc1 [Compound I-647]	–	75 to 100%	–
N=C(N)c1ccc2cc(C(=O)N[C@H]3CC[C@H](N)CC3)n(Cc3ccc(C(N)=O)c4ccccc34)c2c1 [Compound I-642]	–	–	Mar-2 % inhibition at 1 uM [1]: C (C represents 50%≤I≤75%)
N=C(N)c1ccc2cc(C(=O)N[C@H]3CC[C@H](N)CC3)n(Cc3ccc(C(N)=O)c4ccccc34)c2c1 [Compound I-509]	50 to 75%	–	–
N=C(N)c1ccc2cc(C(=O)N[C@H]3CC[C@H](N)CC3)n(Cc3csc4ccccc34)c2c1 [Compound I-756]	–	75 to 100%	–
N=C(N)c1ccc2cc(C(=O)NS(=O)(=O)C3CC3)n(Cc3cccc4ccccc34)c2c1 [Compound I-484]	25 to 50%	–	–
N=C(N)c1ccc2cc(C(=O)N[C@H]3CC[C@H](N)CC3)n(Cc3cc(OCc4ccccc4)cc4ccccc34)c2c1 [Compound I-733]	–	75 to 100%	–
CC(C)(C)OC(=O)NC(=N)c1ccc2cc(C(=O)N[C@H]3CC[C@H](NC(=O)OC(C)(C)C)CC3)n(Cc3ccc(C(N)=O)cc3)c2c1 [Compound I-495]	0 to 25%	–	–
N=C(N)c1ccc2cc(C(=O)N3CCCNCC3)n(Cc3cccc4ccccc34)c2c1 [Compound I-442]	50 to 75%	–	–
CNC(=O)c1cc2ccc(C(=N)N)cc2n1Cc1cccc2ccccc12 [Compound I-609]	–	50 to 75%	–
CC(C)OC(=O)NC(=N)c1ccc2cc(C(=O)NC3CCN(C)CC3)n(Cc3cccc4ccccc34)c2c1 [Compound I-784]	–	25 to 50%	–
N=C(N)c1ccc2cc(C(=O)O)n(Cc3csc4ccccc34)c2c1 [Compound I-703]	–	50 to 75%	–
N=C(N)c1ccc2cc(C(=O)NC3CCC(N4CCCC4)CC3)n(Cc3cccc4ccccc34)c2c1 (centres unmarked) [Compound I-462]	75 to 100%	–	–
NC(=O)c1ccc2cc(C(=O)NC3CCNCC3)n(Cc3cccc4ccccc34)c2c1 [Compound I-455, 1-(naphthalen-1-ylmethyl)-N2-(piperidin-4-yl)-1H-indole-2,6-dicarboxamide]	0 to 25%	–	–

Structure (SMILES)	inhibition at 1 µM (1 uM compound, Assay Used = B)	inhibition at 1 µM [1]	also measured
COc1cccc2c(Cn3c(C(=O)N[C@H]4CC[C@H](N)CC4)cc4ccc(C(=N)N)cc43)cccc12 [Compound I-797]	–	–	inhibition at 1 µM [2]: 75 to 100%
N=C(N)Nc1ccc2cc(C(=O)N[C@H]3CC[C@H](N)CC3)n(Cc3cccc4ccccc34)c2c1 [Compound I-620, N-((1r,4r)-4-aminocyclohexyl)-6-guanidino-1-(naphthalen-1-ylmethyl)-1H-indole-2-carboxamide]	–	0 to 25%	–
CN(C)CCCOc1ccc2c(Cn3c(C(=O)O)cc4ccc(C(=N)N)cc43)cccc2c1 [Compound I-808]	–	–	inhibition at 1 µM [2]: 50 to 75%
N=C(N)c1ccc2cc(C(=O)N[C@H]3CC[C@H](N)CC3)n(Cc3cccc4c3CCCC4)c2c1 [Compound I-814]	–	–	inhibition at 1 µM [2]: 25 to 50%
CN(C)C(=O)Sc1cc(Cn2c(C(=O)O)cc3ccc(C(=N)N)cc32)c2ccccc2c1 [Compound I-575]	0 to 25%	–	–
N=C(N)c1ccc2cc(C(=O)N[C@H]3CC[C@H](N)CC3)n(Cc3cc(C(=O)OCc4ccccc4)cc4ccccc34)c2c1 [Compound I-774]	–	75 to 100%	–
CCOC(=O)c1cc2ccc(C(=N)N)cc2n1Cc1cc(Oc2ccccc2)cc2ccccc12 [Compound I-662]	–	25 to 50%	–
N=C(N)c1ccc2cc(C(=O)N[C@H]3CC[C@H](N)CC3)n(Cc3cccc4c(OCc5ccccc5)cccc34)c2c1 [Compound I-769]	–	75 to 100%	–
N=C(N)c1ccc2ccn(Cc3cccc4ccccc34)c2c1 [Compound I-521, 1-(naphthalen-1-ylmethyl)-1H-indole-6-carboximidamide]	50 to 75%	–	–
N=C(N)c1ccc2cc(C(=O)NCC3(CN)CCCCC3)n(Cc3cccc4ccccc34)c2c1 [Compound I-474]	–	–	Mar-2 % inhibition at 1 uM (1 uM compound, Assay Used = B): D (D represents 75%≤I≤100%)
N=C(N)c1ccc2cc(C(=O)NC3CCNCC3F)n(Cc3cccc4ccccc34)c2c1 (centres unmarked) [Compound I-593]	75 to 100%	–	–
N=C(N)c1ccc2cc(C(=O)NCCCCN)n(Cc3cccc4ccccc34)c2c1 [Compound I-452]	75 to 100%	–	–
N=C(N)c1ccc2cc(C(=O)N[C@H]3CC[C@H](N)CC3)n(Cc3cnoc3-c3ccc(Cl)s3)c2c1 [Compound I-755]	–	25 to 50%	–
N=C(N)c1ccc2cc(C(=O)O)n(Cc3cc(NS(=O)(=O)c4ccccc4)cc4ccccc34)c2c1 [Compound I-567, 6-carbamimidoyl-1-((3-(phenylsulfonamido)naphthalen-1-yl)methyl)-1H-indole-2-carboxylic Acid]	75 to 100%	–	–
CCOC(=O)NC(=N)c1ccc2cc(C(=O)NC3CCN(C)CC3)n(Cc3cc(Oc4ncccn4)cc4ccccc34)c2c1 [Compound I-549]	25 to 50%	–	–
COc1ccc2c(Cn3c(C(=O)N[C@H]4CC[C@H](N)CC4)cc4ccc(/C(N)=N\O)cc43)cccc2c1 [Compound I-795]	–	0 to 25%	–
CN(C)[C@H]1CC[C@@H](NC(=O)c2cc3ccc(C(=N)N)cc3n2Cc2cccc3ccccc23)CC1 [Compound I-470]	75 to 100%	–	–
N=C(N)c1ccc2cc(C(=O)OCCN)n(Cc3cc(Oc4ccccc4)cc4ccccc34)c2c1 [Compound I-629]	–	75 to 100%	–
N=C(N)c1ccc2cc(C(=O)NCc3ccncc3)n(Cc3cccc4ccccc34)c2c1 [Compound I-758]	–	50 to 75%	–
NCc1ccc2cc(C(=O)N[C@H]3CC[C@H](N)CC3)n(Cc3cc(Oc4ccccc4)cc4ccccc34)c2c1 [Compound I-635]	–	50 to 75%	–
CC1CCCCN1CCCNC(=O)c1cc2ccc(C(=N)N)cc2n1Cc1cccc2ccccc12 (centres unmarked) [Compound I-683]	–	50 to 75%	–
N=C(NC(=O)Oc1ccccc1)c1ccc2cc(C(=O)OCc3ccccc3)n(Cc3cc(Oc4ncccn4)cc4ccccc34)c2c1 [Compound I-576]	–	–	inhibition at 1 µM: 0 to 25%
CC(C)(C)OC(=O)N[C@H]1CC[C@H](NC(=O)c2cc3ccc(CN)cc3n2Cc2cccc3ccccc23)CC1 [Compound I-530, tert-butyl ((1r,4r)-4-(6-(aminomethyl)-1-(naphthalen-1-ylmethyl)-1H-indole-2-carboxamido)cyclohexyl) carbamate]	0 to 25%	–	–
